Laboratory results taken from patent US11969401B2, “Compositions and methods for treating or limiting development of age-related macular degeneration” (Arizona Board of Regents on Behalf of The University of …, priority 2019, dated 2024).

System: retinal pigment epithelium (RPE) cells
Assay: Circadian patterns of VEGF secretion by perfused RPE monolayers (ELISA, Cosinor fit)
Assay type: cell-based
Conditions: alternating 12-hour intervals, conclusion in words
Description: The purpose of this study was to test whether retinal pigment epithelium (RPE) cells express vascular endothelial growth factor (VEGF) in a circadian manner. We tested the hypothesis that 12 hour alternating intervals of dopamine then melatonin combined with L-DOPA would induce RPE cells into a circadian rhythm that controlled VEGF expression. Methods: RPE monolayers were produced on snap-well filters, which were maintained in static culture conditions for at least six months, during which time they became pigmented and well differentiated. […] A baseline of VEGF secretion was established over a 3-week period. After the baseline was established, the cells were perfused with media containing 1 ? M dopamine for 12 hours, then media containing 1 ? M melatonin plus 1 ? M L-DOPA for the next 12 hours. […] Initiation of the next drug dilutes the previous over 12 hours while simultaneously ramping up the new drug. Cells were maintained in this circadian rhythm for at least three cycles. […] The amount of VEGF was plotted against the time of perfusion and fitted using the Cosinor method to find a length of circadian cycle and corresponding p-value for statistical analysis.

| SMILES | effect on RPE VEGF secretion |
| --- | --- |
| N[C@@H](Cc1ccc(O)c(O)c1)C(=O)O [L-DOPA, 2-amino-3-(3,4-dihydroxyphenyl)propanoic acid] | antagonize dopamine effects |
| NCCc1ccc(O)c(O)c1 [dopamine] | increase RPE VEGF secretion |
| COc1ccc2[nH]cc(CCNC(C)=O)c2c1 [melatonin, Melatonin] | antagonize dopamine effects |
